Reference: patent US20090214426A1, “Assay Method” (priority 2004, published 2009)
“Also recorded” adds a separate entry of the source.

Assays:
CCI rats [1] = test: Beam walking test in CCI rats; type: in vivo, rat; conditions: for efficacy on reversing beam walking impairments: summary statement, dose not stated
Description: (§1) The CCI of sciatic nerve is performed as previously described by Bennett and Xie (1988). Animals are anaesthetized with a 2% isofluorane/O2 mixture maintained during surgery via a nose cone and the common sciatic nerve is exposed at the middle of the right thigh by blunt dissection through biceps femoris. Proximal to the sciatic trifurcation, about 7 mm of nerve is freed of adhering tissue and 4 ligatures (4-0 silk) are tied loosely around it with about 1 mm spacing. Ligatures are tied such that the circulation through the superficial epineural vasculature is retarded but not arrested. The incision is then closed in layers and the wound treated with topical antibiotics. In the sham-operated group an identical dissection is performed on the ipsilateral paw except the sciatic nerve is not ligated.
The Beam walking apparatus consists of a 1.5 m long beam with a 2.5×2.5 cm square cross section, elevated 75 cm above the floor. The test is performed in dim light conditions (18 lux). A light source (520 lux) is placed at the start-end of the beam while a dark box at the other side (Goldstein & Davis, 1990, J Neurosci Methods; 31:101-107). Rats are trained over a period of 2 days to cross the beam. On the day of the test an additional training section is performed before the proper test trial was performed. […] Rats that cross the beam without using the ipsilateral paw are given a maximal number of foot slips.
Starting from 3 weeks post surgery, CCI rats are selected based on their performances. Only those showing a number of foot slips of 2 or above are selected and used for the pharmacological validation of the test. A group of naïve CD rats are treated with vehicle and used as positive controls. […]

CCI rats [2] = test: Open field test in CCI rats; type: in vivo, rat; conditions: for reversal of pain-related anxiety-like behaviour of CCI rats: summary statement, dose not stated
Description: as §1
(§2) The spontaneous locomotor activity of rats in an open field is monitored for 30 minutes in a 70×70 cm dark arena (Prut ans Beizung, 2003, Eur J Pharmacol. 463:3-33). Each animal was placed in the centre of the arena and a video camera recorded movement of the animal. Four rats are recorded simultaneously in four different cages. Data are collected and analysed by Ethovision 3.0 software (Noldus IT, Netherdland) and the exploratory behaviour is expressed as number of entries in the central area of the arena (23×23 cm).
To measure the anxiety-like behaviour in CCI rats the open field test is carried out in normal light conditions (100 Lux).
For a pharmacological validation of the model, CCI rats with a poor exploratory activity (entries≦6) are pre selected in the open field and a week later treated with diazepam (1 and 3 mg/kg, i.p.), tramadol (30 mpk, p.o.) or gabapentin (30-100 mg/kg, p.o.). Naïve CD vehicle-treated rats are used as positive control.

CCI rats [3] = test: Rota rod test in CCI rats; type: in vivo, rat; conditions: analgesic doses; selected rats with mean performance <80 seconds; data not shown
Description: as §1
The rota rod test consists of 4 rotatable drums divided by flanges with a motor-driven drum which is capable of acceleration (Ugo Basile, Comerio, VA, Italy). For a given trial, a rat is placed on the rotating rod and the rotation speed is accelerated from 4 to 16 revolutions per minute (rpm) in 2 minutes. The time of maximal performance is set at 120 seconds (Voikar V et al, 2001, Physiol Behav., 2001; 72:271-81). […]

fibromyalgia patients = conditions: randomised controlled clinical trials (Mease 2003); cited from earlier work
CCI rats [4] = test: Object recognition test in CCI rats; type: in vivo, rat; conditions: tramadol 100 mg/kg po, 3.5 hours post familiarization, tested 30 minutes later
Description: as §1
The Object Recognition test was performed as described by Ennaceur and Delacour (1988). The apparatus consisted of a black circular arena 55 cm in diameter with 50 cm black walls. […]
Each animal was trained prior to testing; this involved handling and habituation of the rat to the arena for 5 minutes per session, twice a day for three consecutive days. […] The distance moved in the arena and the time spent exploring each object during familiarization and sample phases were recorded manually and automatically, respectively by the videotracking system (Noldus Ethovision 3.0, Netherland). […]

[5] = test system: patients with diabetic neuropathy and post herpetic neuralgia; conditions: randomised controlled clinical trials (Backonja 1998; Rowbotham 1998); cited from earlier work
CD naïve rat = test: Open field test in naïve rats (anxiogenic validation); type: in vivo
Description: as §2
To measure the anxiety-like behaviour in CCI rats the open field test is carried out in normal light conditions (100 Lux). […] To confirm that the environmental conditions we set up, could let us measure an anxiety-like behaviour, the activity of the anxiogenic compound mCPP was tested in CD naïve rat.

SMILES: CN(C)CCC=C1c2ccccc2CCc2ccccc21 [Amitriptyline]
- neuropathic rats performance in the beam walking task (CCI rats [1]; amitriptyline 2 mg/kg (FIG. 2C)): did not improve
- neuropathic rats performance in the beam walking task (CCI rats [1]; amitriptyline 20 mg/kg (data not shown)): did not improve
- efficacy on reversing beam walking impairments (CCI rats [1]): does not

SMILES: CN1C(=O)CN=C(c2ccccc2)c2cc(Cl)ccc21 [Diazepam]
- pain-related anxiety-like behaviour of CCI rats (entries in centre) (CCI rats [2]; diazepam 1 mg/kg IP, 30 minutes before the test (FIG. 5A)): did not
- pain-related anxiety-like behaviour of CCI rats (entries in centre) (CCI rats [2]; diazepam 3 mg/kg (higher dose, data not shown)): did not
- reversal of pain-related anxiety-like behaviour of CCI rats (CCI rats [2]): does not reverse

SMILES: CN1CC[C@]23c4c5ccc(O)c4O[C@H]2[C@@H](O)C=C[C@H]3[C@H]1C5 [Morphine]
- rota rod performance of neuropathic rats (CCI rats [3]): did not improve; also recorded: did not showed improvement
- rats performance in the beam walking test (CCI rats [1]; morphine 1 mg/kg s.c. (lower dose)): not statistically different from the control value
- number of foot slips (CCI rats [1]; morphine 3 mg/kg s.c. (higher dose), 30 minutes post dosing, vs 6±1 baseline, p<0.05): 3±1
- number of foot slips (CCI rats [1]; morphine 3 mg/kg s.c. (higher dose), 1 hour post dosing, vs 5±1 baseline, p<0.05): 2±1
- efficacy on reversing beam walking impairments (CCI rats [1]): show efficacy

SMILES: CC(C)C[C@H](CN)CC(=O)O [Pregabalin]
- QoL deficit of fibromyalgia patients (fibromyalgia patients): showed efficacy

SMILES: COc1cccc(C2(O)CCCCC2CN(C)C)c1 (stereo not shown) [Tramadol]
- rota rod performance of neuropathic rats (CCI rats [3]): did not improve; also recorded: did not showed improvement
- reversal of pain-related anxiety-like behaviour of CCI rats (CCI rats [2]): does not reverse
- pain-related anxiety-like behaviour of CCI rats (entries in centre) (CCI rats [2]; tramadol 30 mg/kg PO, 30 minutes before the test (FIG. 5A)): did not
- pain-related anxiety-like behaviour of CCI rats (entries in centre) (CCI rats [2]; tramadol 100 mg/kg (higher dose, data not shown)): did not
- cognitive dysfunction (memory/attention deficit) of neuropathic rats (CCI rats [4]): reversed
- discrimination index compared to vehicle-treated CCI rats (CCI rats [4]; P<0.01): significant increase
- efficacy on reversing beam walking impairments (CCI rats [1]): show efficacy
- performance of rats in the beam walking test (CCI rats [1]; tramadol 30 mg/kg p.o.): not significantly different from CCI controls
- number of foot slips (CCI rats [1]; tramadol 100 mg/kg p.o. (higher dose), 1 hour post drug administration, vs 6±1 CCI vehicle-treated group, p<0.01): 1±1
- ability of CCI rats to cross the beam (CCI rats [1]; tramadol 30-100 mg/kg p.o.): dose dependently improves

SMILES: NCC1(CC(=O)O)CCCCC1 [gabapentin]
- number of entries in the centre of the open field compared to CCI vehicle-treated group (CCI rats [2]; gabapentin 30 mg/kg p.o.): increased
- anxiety-like behaviour of injured rats (CCI rats [2]; gabapentin 100 mg/kg p.o.): completely reversed
- number of entries in the centre of the open field (CCI rats [2]; gabapentin 100 mg/kg p.o., 1 hour before the test, vs 14±2 naïve vehicle-treated group, NS): 12±2
- exploratory activity of neuropathic rats (CCI rats [2]; gabapentin 30-100 mg/kg p.o.): improved
- reversal of pain-related anxiety-like behaviour of CCI rats (CCI rats [2]): does
- QoL of patients [5]: demonstrated an improvement

SMILES: Clc1cccc(N2CCNCC2)c1 [mCPP]
- exploratory activity (number of entries) (CD naïve rat; mCPP 1-3 mg/kg i.p.): dose-dependent decrease
- number of entries in the centre of the arena (CD naïve rat; mCPP higher dose (3 mg/kg) i.p., vs 13±3 vehicle-treated): 5±2
- rats that explored the centre less than 6 times (CD naïve rat; mCPP, compared to 16% in the control group): Seventy-five
